Measurements from patent US20020086278A1, “CHROMOGENIC MEDIA CONTAINING BLOOD OR HEMIN” (priority 1999, published 2002).
Read-outs that look alike come from different tables or passages of the source.

How the values were obtained:
[1] = tested on: S. pneumoniae (stpn); assay: Example 3: colony color on chromogenic TSA II with 5% sheep blood (chromogen in medium); format: cell-based; details: for Colony Color on Various Chromogenic TSA II with 5% Sheep Blood: 18 h
[2] = tested on: cakr 34135; assay: as above; format: cell-based
[3] = tested on: milu 9341; assay: as above; format: cell-based
[4] = tested on: E. faecium (enfu); assay: as above; format: cell-based; details: for Colony Color: enfu 49032
[5] = tested on: S pyogenes (stpy); assay: as above; format: cell-based; details: for Colony Color: 21 h; for Colony Color on Various Chromogenic TSA II with 5% Sheep Blood: 18 h
[6] = tested on: Salmonella spp. (sasp); format: cell-based; details: for Colony Color: CO2
[7] = tested on: Klebsiella pneumoniae (klpn); assay: Example 3: colony color on chromogenic TSA II with 5% sheep blood (chromogen in medium); format: cell-based
[8] = tested on: Aeromonas hydrophilia (aehy); assay: as above; format: cell-based; details: for Colony Color: CO2
[9] = tested on: Streptococcus pneumoniae 6303; assay: Example 1: growth and colony color on plates surface-spread with chromogen; format: cell-based
[10] = tested on: Streptococcus agalactiae (stag); assay: Example 3: colony color on chromogenic TSA II with 5% sheep blood (chromogen in medium); format: cell-based
[11] = tested on: S. milleri (stmi); assay: as above; format: cell-based
[12] = tested on: Serratia marcescens (sema); assay: as above; format: cell-based; details: for Colony Color: sema 13880, CO2
[13] = tested on: Entercoccus faecalis (enfa); assay: as above; format: cell-based
[14] = tested on: Staphylococcus Coag Neg (step); assay: as above; format: cell-based; details: for Colony Color on Various Chromogenic TSA II with 5% Sheep Blood: 18 h
[15] = tested on: Pseudomonas aeruginosa (psae); assay: as above; format: cell-based; details: for Colony Color: CO2
[16] = Precipitate of chromogen on pre-plated media; format: physicochemical; details: After 1 week
Experimental: 50 μl of each chromogen solution was added to the surface of each of the following pre-plated media (one chromogen solution per plate):
The solution was dispersed using a spreader and allowed to dry 3-4 hours in a hood.

[17] = tested on: Branhamella catarrhalis (brca); assay: Example 3: colony color on chromogenic TSA II with 5% sheep blood (chromogen in medium); format: cell-based; details: for Colony Color: CO2
[18] = tested on: Candida albicans (caal); assay: as above; format: cell-based
[19] = chromogenic TSA II with 5% Sheep Blood, 0.1 g/l
[20] = chromogenic TSA II with 5% Sheep Blood, 0.1 g/l, 6 strains tested
[21] = chromogenic TSA II with 5% Sheep Blood, 0.1 g/l, 1 strain tested
[22] = chromogenic TSA II with 5% Sheep Blood, 0.1 g/l, 2 strains tested
[23] = chromogenic TSA II with 5% Sheep Blood, 0.1 g/l, 3 strains tested

## CC(=O)N[C@H]1[C@H](Oc2c[nH]c3ccc(Br)c(Cl)c23)O[C@H](CO)[C@H](O)[C@@H]1O [X-Acglmn, 5-Br-4-Cl-3-indolyl-N-Acetyl-β-D-galactosaminide]
[1]; [19]
  Growth vs. control: <grth
[1]; [20]
  Colony Color (Summary): 0
[1]; stpn 1259, CO2, 21 h
  Colony Color: 0
[1]; stpn 1260, CO2, 21 h
  Colony Color: 0
[1]; stpn 1331, CO2, 21 h
  Colony Color: 0
[1]; stpn 1628, CO2, 21 h
  Colony Color: 0
[1]; stpn 6303, CO2, 24 h
  Colony Color: 0
[1]; stpn 6303, air, 24 h
  Colony Color: 0
[1]; stpn 6305, CO2, 24 h
  Colony Color: 0
[1]; stpn 6305, air, 24 h
  Colony Color: 0
[1]; stpn t259, CO2
  Colony Color on Various Chromogenic TSA II with 5% Sheep Blood: 0
[1]; stpn t260, CO2
  Colony Color on Various Chromogenic TSA II with 5% Sheep Blood: 0
[1]; stpn t331, CO2
  Colony Color on Various Chromogenic TSA II with 5% Sheep Blood: drkr < muc
[1]; stpn t628, CO2
  Colony Color on Various Chromogenic TSA II with 5% Sheep Blood: 0
[2]; CO2, 18 h
  Colony Color: 0
[2]; CO2, 21 h
  Colony Color: 0
[3]; CO2, 18 h
  Colony Color: ly
[3]; CO2, 21 h
  Colony Color: 0
[4]; [21]
  Colony Color (Summary): +
[4]; CO2, 18 h
  Colony Color: lb
[4]; CO2, 21 h
  Colony Color: db
[4]; air, 21 h
  Colony Color: lb
[5]; [19]
  Growth vs. control: <grth
[5]; [20]
  Colony Color (Summary): 0
[5]; stpy 1027, CO2
  Colony Color: 0
[5]; stpy 1028, CO2
  Colony Color: 0
[5]; stpy 1029, CO2
  Colony Color: 0
[5]; stpy 1030, CO2
  Colony Color: 0
[5]; stpy 19615, CO2
  Colony Color: 0
[5]; stpy 19615, air
  Colony Color: 0
[5]; stpy 49117, CO2
  Colony Color: 0
[5]; stpy 49117, air
  Colony Color: 0
[5]; stpy 51339, CO2
  Colony Color on Various Chromogenic TSA II with 5% Sheep Blood: 0
  Colony Color: 0
[5]; stpy 51339, air
  Colony Color: 0
[5]; stpy t027, CO2
  Colony Color on Various Chromogenic TSA II with 5% Sheep Blood: 0
[5]; stpy t028, CO2
  Colony Color on Various Chromogenic TSA II with 5% Sheep Blood: 0
[5]; stpy t029, CO2
  Colony Color on Various Chromogenic TSA II with 5% Sheep Blood: 0
[5]; stpy t030, CO2
  Colony Color on Various Chromogenic TSA II with 5% Sheep Blood: 0
[6]; [22]
  Colony Color (Summary): 0
[6]; saty 19430, 18 h
  Colony Color: 0
[6]; saty 19430, 21 h
  Colony Color: 0
[6]; satym 14028, 18 h
  Colony Color: 0
[6]; satym 14028, 21 h
  Colony Color: 0
[7]; [23]
  Colony Color (Summary): 0
[7]; klpn 13883, CO2, 18 h
  Colony Color: 0
[7]; klpn 13883, CO2, 21 h
  Colony Color: 0
[7]; klpn 33495, CO2, 18 h
  Colony Color: vlgb
[7]; klpn 33495, CO2, 24 h
  Colony Color: 0
[7]; klpn 33495, air, 24 h
  Colony Color: 0
[7]; klpn 33606, CO2, 18 h
  Colony Color: 0
[7]; klpn 33606, CO2, 21 h
  Colony Color: 0
[8]; aehy 7965, 18 h
  Colony Color: db
[8]; aehy 7965, 21 h
  Colony Color: gb
[8]; aehy 7966, 18 h
  Colony Color: db
[8]; aehy 7966, 21 h
  Colony Color: gb
[8]; aehy 49847, 18 h
  Colony Color: db
[8]; aehy 49847, 21 h
  Colony Color: gb
[8]; [23]
  Colony Color (Summary): +
[9]; Summary of Table I, S. pneumoniae 6303
  Substrates Producing Color: X-Acglmn (TSA II
[9]; TSA II 5SB, S. pneu: 6303
  Color: blue
[10]; [23]
  Colony Color (Summary): 0
[10]; stag 4768, CO2, 21 h
  Colony Color: 0
[10]; stag 4768, air, 21 h
  Colony Color: 0
[10]; stag 12386, CO2, 21 h
  Colony Color: 0
[10]; stag 12386, CO2, 24 h
  Colony Color: 0
[10]; stag 12386, air, 24 h
  Colony Color: 0
[11]; [19]
  Growth vs. control: <grth
[11]; [22]
  Colony Color (Summary): 0
[11]; stmi 6242, CO2, 18 h
  Colony Color on Various Chromogenic TSA II with 5% Sheep Blood: 0
[11]; stmi 6249, air, 21 h
  Colony Color: 0
[12]; [21]
  Colony Color (Summary): +
[12]; 18 h
  Colony Color: gb
[12]; 21 h
  Colony Color: gb
[13]; [20]
  Colony Color (Summary): +
[13]; enfa 597, CO2, 18 h
  Colony Color: db
[13]; enfa 597, CO2, 21 h
  Colony Color: db
[13]; enfa 10741, CO2, 18 h
  Colony Color: db
[13]; enfa 10741, CO2, 21 h
  Colony Color: db
[13]; enfa 12953, CO2, 18 h
  Colony Color: db
[13]; enfa 12953, CO2, 21 h
  Colony Color: db
[13]; enfa 14506, CO2, 18 h
  Colony Color: db
[13]; enfa 14506, CO2, 21 h
  Colony Color: db
[13]; enfa 29212, CO2, 18 h
  Colony Color: db
[13]; enfa 29212, CO2, 21 h
  Colony Color: db
[13]; enfa 29212, CO2, 24 h
  Colony Color: db
[13]; enfa 29212, air, 24 h
  Colony Color: db
[14]; one S. epidermidis
  Colony Color: blue
[14]; step 12228, CO2
  Colony Color on Various Chromogenic TSA II with 5% Sheep Blood: 0
[14]; step 12228, CO2, 21 h
  Colony Color: 0
[14]; step 12228, air, 21 h
  Colony Color: 0
[14]; step cdc1, CO2
  Colony Color on Various Chromogenic TSA II with 5% Sheep Blood: 0
[14]; step cdc1, CO2, 21 h
  Colony Color: 0
[14]; step cdc1, air, 21 h
  Colony Color: 0
[14]; step cdc2, CO2, 21 h
  Colony Color: 0
[14]; step cdc2, air, 21 h
  Colony Color: 0
[14]; step cdc3, CO2, 21 h
  Colony Color: 0
[14]; step cdc3, air, 21 h
  Colony Color: 1b
[14]; step cdc4, CO2
  Colony Color on Various Chromogenic TSA II with 5% Sheep Blood: 0
[14]; step cdc4, CO2, 21 h
  Colony Color: 0
[14]; step cdc4, air, 21 h
  Colony Color: 0
[14]; stha cdc2, CO2
  Colony Color on Various Chromogenic TSA II with 5% Sheep Blood: 0
[14]; stsa cdc3, CO2
  Colony Color on Various Chromogenic TSA II with 5% Sheep Blood: 0
[15]; [23]
  Colony Color (Summary): 0
[15]; psae 9027, 18 h
  Colony Color: 0
[15]; psae 9027, 21 h
  Colony Color: 0
[15]; psae 15442, 18 h
  Colony Color: 0
[15]; psae 15442, 21 h
  Colony Color: 0
[15]; psae 33607, 18 h
  Colony Color: 0
[15]; psae 33607, 21 h
  Colony Color: 0
[16]
  Precipitate on plates after 1 week: some precipitate was evident
[17]; brca 25238, 18 h
  Colony Color: 0
[17]; brca 25238, 21 h
  Colony Color: 0
[17]; brca 25240, 21 h
  Colony Color: 0
[17]; [22]
  Colony Color (Summary): 0
[18]; caal 10231, CO2, 24 h
  Colony Color: gb
[18]; caal 10231, air, 24 h
  Colony Color: 0
[18]; [22]
  Colony Color (Summary): +
[18]; one C. albicans
  Colony Color: blue
